Assay results: PubChem BioAssay (NCI)
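Five compound concentrations were applied to cells in 96-well plates for 48 hours; endpoints were derived by simple linear interpolation of the resulting dose-response curve. At the GI50, growth is halved. TGI denotes the concentration required for complete inhibition of growth.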

Key:
Assay in all cases: inhibition of tumour cell growth, NCI panel, 48 h
[1] = system: HS 578T breast
[2] = system: KM12 colon
[3] = system: SW-620 colon
[4] = system: OVCAR-3 ovarian
[5] = system: HCT-15 colon
[6] = system: UACC-62 melanoma
[7] = system: HCC-2998 colon
[8] = system: NCI/ADR-RES ovarian
[9] = system: BT-549 breast
[10] = system: SK-MEL-5 melanoma

Compound | GI50 [1] [nM] | TGI [1] [nM] | GI50 [2] [nM] | TGI [2] [nM] | GI50 [3] [nM] | TGI [3] [nM] | GI50 [4] [nM] | TGI [4] [nM] | GI50 [5] [nM] | TGI [5] [nM] | GI50 [6] [nM] | TGI [6] [nM] | GI50 [7] [nM] | TGI [7] [nM] | GI50 [8] [nM] | TGI [8] [nM] | GI50 [9] [nM] | TGI [9] [nM] | GI50 [10] [nM] | TGI [10] [nM]
NC1=CC(=O)c2cccnc2C1=O | 2280 | 8170 | 3280 | 13100 | 1560 | 3570 | 1440 | 3160 | 1760 | 10200 | 1470 | 2870 | 5820 | 19800 | 2290 | 11200 | 1580 | 2980 | 1580 | 2950
CC(C)(C)N1CCC1CN (centres undefined) | > 100000 | > 100000 | > 100000 | > 100000 | > 100000 | > 100000 | > 100000 | > 100000 | > 100000 | > 100000 | > 100000 | > 100000 | > 100000 | > 100000 | > 100000 | > 100000 | > 100000 | > 100000 | > 100000 | > 100000
COc1ccc(/C=C(/C(=O)N2CCN(c3ccccc3)CC2)c2cc(OC)c(OC)c(OC)c2)cc1N | 357 | > 100000 | 423 | > 100000 | 401 | > 100000 | 366 | > 100000 | 388 | > 100000 | 272 | > 100000 | 556 | > 100000 | 623 | > 100000 | 530 | > 100000 | 386 | 10900
CSc1ccc(-c2ccccc(=O)c2O)cc1 | 2770 | 99700 | 508 | > 100000 | 386 | > 100000 | 373 | 29700 | 172 | 29700 | 397 | 2920 | 594 | > 100000 | 278 | 2120 | 873 | 35200 | 413 | 5050
C=C1CC2CCCC12C=O (centres undefined) | – | > 10000 | – | > 10000 | – | > 10000 | – | > 10000 | – | > 10000 | – | > 10000 | – | > 10000 | – | > 10000 | – | > 10000 | – | > 10000
CSC1=Nc2c(c(C)c(-c3ccccc3)n2CCCN2CCCCC2)C2=NC(=O)C[C@H](C)N12 | 2040 | 10400 | 3260 | 12500 | 2990 | 18200 | 2550 | 11000 | 8410 | > 53200 | 3170 | 15400 | 3180 | 12700 | 20000 | 79100 | 2830 | 13700 | 1990 | 4640
NCCCNc1nc2ccccc2c2c(=O)c3cc(F)cc(F)c3sc12 | 1470 | 3090 | 1740 | 3260 | 1640 | 3190 | 1720 | 3190 | 1600 | 3140 | 1810 | 3480 | 1690 | 3360 | 1810 | 3690 | 13000 | 26800 | 1680 | 3090
CCOC(=O)[C@@H](C)C[C@H](Cc1ccccc1)NC(=O)c1nc([C@@H](C[C@H](C(C)C)N(C)C(=O)[C@@H](NC(=O)[C@H]2CCCCN2C)C(C)C)OC(C)=O)sc1CCOCc1ccccc1 | 83 | 2850 | 44.2 | 1480 | 64 | > 6600 | 39.6 | – | 262 | 1510 | 37.2 | 1690 | 119 | 1130 | 503 | 3980 | 79.2 | 918 | 50 | 380
CC[C@@H]1[C@@H](C)O[C@@](O)([C@@H](C)[C@H](O)[C@H](C)[C@H]2OC(=O)/C=C/C=C/[C@H](C)[C@@H]([C@@H](C)[C@@H](O)[C@H](C)[C@@]3(O)C[C@@H](O[C@H]4C[C@@H](O)[C@H](O)C(C)O4)[C@H](CC)[C@@H](C)O3)OC(=O)/C=C/C=C/[C@@H]2C)C[C@H]1O[C@@H]1C[C@@H](O)[C@H](O)C(C)O1 (some centres undefined) | 79.8 | 253 | 125 | 413 | 108 | 454 | 79.1 | 219 | 459 | 924 | 60.4 | 152 | 97 | 262 | 1050 | 7040 | 56.9 | 124 | 53.1 | 99.2
Cc1cccc(-c2[nH]ncc2-c2ccc3ncccc3n2)n1 | > 14500 | > 25000 | 9510 | > 25000 | 9880 | > 25000 | 14400 | > 25000 | 9980 | > 25000 | 13700 | > 25000 | > 25000 | > 25000 | 13700 | > 25000 | > 25000 | > 25000 | 9630 | > 18500
